Experiments:
Staphylococcus aureus [1] = test: Kirby-Bauer disk diffusion growth inhibition, Staphylococcus aureus; format: cell-based; details: for Zone of inhibition (mm) against S. aureus: Example 35; for Active against: Table 1 summary, S. aureus
Procedure: (§1) The compounds disclosed herein were tested for growth inhibition against four strains of bacteria: Escherichia coli, Staphylococcus aureus, methicillin-resistant Staphylococcus aureus, and Bacillus subtilis. […] They represent […]. E. coli is a gram-negative, non-spore forming, rod-shaped, opportunistic pathogen that resides in the human digestive tract. S. aureus is a gram positive coccus, is usually found morphologically as a […], and is an opportunistic human pathogen, often residing on or in the skin. B. subtilis is a gram positive spore-forming rod. Its native environment is the soil. The chemicals were tested for growth-inhibition of the bacteria by the Kirby-Bauer method. See, e.g., Microbiology, third edition; Lansing M. Prescott, John P. Harley, and Donald A. Klein; Wm. C. Brown Publishers.
(§2) Mueller-Hinton agar (Difco Lab, Michigan) was prepared according to the manufacturer's directions, and 20 ml was dispensed in each sterile petri dish. Sterile nutrient broth (Difco Lab, Michigan) was also prepared according to the manufacturer's directions.
(§3) Bacteria were grown in liquid nutrient broth for 18 hours at 37° C. until they were turbid.
(§4) An aliquot of 0.5 ml of cultured bacteria was aseptically transferred to the surface of a Mueller-Hinton agar plat, and spread using a cotton-tipped swab. Plates were then allowed to dry for 5 minutes. Then a 10 mm diameter filter paper disk impregnated with the test chemical was placed with sterile forceps on the plate. The disks were impregnated with 100 μl of a solution of the test compound in DMSO or in water, at the indicated concentrations in Table 1.
(§5) The zones of inhibition were measured after 18 hours growth at 37° C. Tests were done in triplicate.
(§6) Additional compounds were tested for activity against E. coli, laboratory strain S. aureus (not methicillin resistant), and B. subtilis. The compounds were tested by the disk diffusion method, as in Example 1, with application of a 10 mg/mil solution of the test compound in DMSO.
(§7) Derivatives of lupeol were tested for inhibition of bacterial growth using the Kirby-Bauer disk diffusion method and by growth in liquid culture. For the disk diffusion method, compounds were dissolved in DMSO and 100 μl was added to the 10 mm filter paper disk. The amount of compound applied to the disk varied. The amount applied for each compound was as follows: lupeol (50 μg), lupeol-3-maleate (15 μg), lupeol-3-thiodiglycolate (15 μg), lupeol-3-dimethyl succinate (60 μg), lupeol-3-phosphate (30 μg), lupenone (50 μg), lupenon-3-oxime (50 μg), lupeol-3-amine (50 μg), lupenon-1,2-ene-2-ol (50 μg). In liquid culture, the compounds were dissolved in DMSO at 1 mg/ml and then 100 μl was added to 7 ml of sterile broth, along with a 1/200 dilution of freshly grown bacterial liquid culture.

[2] = tested on: Staphylococcus epidemidis; test: Kirby-Bauer disk diffusion of lupeol derivatives, Staphylococcus epidermidis; format: cell-based
Procedure: as §7

Enterococcus faecalis = test: Kirby-Bauer disk diffusion of lupeol derivatives, Enterococcus faecalis; format: cell-based; details: for Active against: Table 1 summary, E. faecalis
Procedure: as §7

Staphylococcus epidermis = test: Growth in liquid culture, optical density, S. epidermidis; format: cell-based, Staphylococcus epidermidis; details: 600 nm, 24 hours growth, test compound at 14 μg per ml; None = 0.07
Procedure: as §7

Staphylococcus aureus [3] = test: Growth in liquid culture, optical density, S. aureus; format: cell-based; details: 600 nm, 24 hours growth, test compound at 14 μg per ml; None = 0.08
Procedure: as §7

Enterococcus faecilis = test: Growth in liquid culture, optical density, E. faecalis; format: cell-based, Enterococcus faecalis; details: 600 nm, 24 hours growth, test compound at 14 μg per ml; None = 0.85
Procedure: as §7

bacteria = test: Summary statements over the antibacterial assays above; format: cell-based; details: for active against at least one strain of bacteria in the assays above: summary list
Escherichia coli = test: Kirby-Bauer disk diffusion growth inhibition, Escherichia coli; format: cell-based; details: for sensitivity of E. coli: Example 34, 10 mg/ml in DMSO; for Active against: Table 1 summary, E. coli
Procedure: as §1, §2, §3, §4, §5, §6

Bacillus subtilis = test: Kirby-Bauer disk diffusion growth inhibition, Bacillus subtilis; format: cell-based
Procedure: as §1, §2, §3, §4, §5, §6

[4] = 30 μg applied to 10 mm disk in DMSO
[5] = reference antibiotic, amount on disk not stated
[6] = 50 μg applied to 10 mm disk in DMSO
[7] = 1 mg/ml in DMSO, 100 μl on 10 mm disk, 18 hours 37° C.
[8] = 125 ng/ml in water, 100 μl on 10 mm disk, 18 hours 37° C.

Compound: C=C(C)[C@@H]1CC[C@]2(C)CC[C@]3(C)[C@H](CC[C@@H]4[C@@]5(C)CC[C@H](OP(=O)(O)O)C(C)(C)[C@@H]5CC[C@]43C)[C@@H]12 [Lupeol-3-phosphate]
- Zone of inhibition (mm) against S. aureus (Staphylococcus aureus [1]; [4]): 0.5 mm
- Active against (Staphylococcus aureus [1]): S. aureus,
- Zone of inhibition (mm) against S. epiderm. [2, 4]: 0 mm
- Zone of inhibition (mm) against E. faecalis (Enterococcus faecalis; [4]): 0.5 mm
- Active against (Enterococcus faecalis): E. faecalis
- Optical Density of S. epiderm (Staphylococcus epidermis): 0.06
- Optical Density of S. aureus (Staphylococcus aureus [3]): 0.06
- Optical Density of E. faecalis (Enterococcus faecilis): 0.04
- active against at least one strain of bacteria in the assays above (bacteria): active against at least one strain of bacteria

Compound: C=C(C)[C@@H]1CC[C@]2(CO)CC[C@]3(C)[C@H](CC[C@@H]4[C@@]5(C)CC[C@H](OC(=O)/C=C/c6ccc(O)c(O)c6)C(C)(C)[C@@H]5CC[C@]43C)[C@@H]12 [Betulin-3-caffeate]
- sensitivity of E. coli (Escherichia coli): sensitive
- Active against (Escherichia coli): E. coli
- active against at least one strain of bacteria in the assays above (bacteria): active against at least one strain of bacteria

Compound: [H]/N=C(/N)N[C@H]1[C@H](O)[C@@H](O)[C@H](O[C@@H]2O[C@@H](C)[C@](O)(C=O)[C@H]2O[C@@H]2O[C@@H](CO)[C@H](O)[C@@H](O)[C@@H]2NC)[C@@H](N/C(N)=N\[H])[C@@H]1O [Streptomycin, reference compound]
- zone of inhibition at 10 µg/disc (Escherichia coli; Escherichia coli, control antibiotic, 10 mcg): 20 mm
- Zone of inhibition (mm) against S. aureus (Staphylococcus aureus [1]; [5]): 1.25 mm
- zone of inhibition at 10 µg/disc (Staphylococcus aureus [1]; Staphylococcus aureus, control antibiotic, 10 mcg): 15 mm
- amount applied to the disk required for inhibition of S. aureus (Staphylococcus aureus [1]; disk diffusion assay, laboratory strain (not methicillin resistant)): 10 µg
- zone of inhibition at 10 µg/disc (Bacillus subtilis; Bacillus subtilis, control antibiotic, 10 mcg): 24 mm
- Zone of inhibition (mm) against S. epiderm. [2, 5]: 0 mm
- Zone of inhibition (mm) against E. faecalis (Enterococcus faecalis; [5]): 0 mm

Compound: C=C(C)[C@@H]1CC[C@]2(C)CC[C@]3(C)[C@H](CC[C@@H]4[C@@]5(C)CCC(N)C(C)(C)[C@@H]5CC[C@]43C)[C@@H]12 (stereo partly shown) [Lupeol-3-amine]
- Zone of inhibition (mm) against S. aureus (Staphylococcus aureus [1]; [6]): 0.3 mm
- Active against (Staphylococcus aureus [1]): S. aureus,
- Zone of inhibition (mm) against S. epiderm. [2, 6]: 0 mm
- Zone of inhibition (mm) against E. faecalis (Enterococcus faecalis; [6]): 0.5 mm
- Active against (Enterococcus faecalis): E. faecalis
- Optical Density of S. epiderm (Staphylococcus epidermis): 0.06
- Optical Density of S. aureus (Staphylococcus aureus [3]): 0.06
- Optical Density of E. faecalis (Enterococcus faecilis): 0.04
- active against at least one strain of bacteria in the assays above (bacteria): active against at least one strain of bacteria

Compound: C=C(C)C1CCC2(COC(=O)CCC(=O)O)CC[C@@]3(C)C(CCC4[C@@]5(C)CCC(OC(=O)CCC(=O)O)C(C)(C)C5CC[C@]43C)C12 (stereo partly shown) [Betulin 3,28-disuccinate, Betulin-3,28-disuccinate]
- Zone of inhibition Escherichia coli (Escherichia coli; [7]): 0 mm
- Zone of inhibition Staphylococcus aureus (Staphylococcus aureus [1]; [7]): 0 mm
- Zone of inhibition Bacillus subtilis (Bacillus subtilis; [7]): 0 mm
- active against at least one strain of bacteria in the assays above (bacteria): active against at least one strain of bacteria

Compound: C=C(C)[C@@H]1CC[C@]2(C)CC[C@]3(C)[C@H](CC[C@@H]4[C@@]5(C)C=C(O)C(=O)C(C)(C)[C@@H]5CC[C@]43C)[C@@H]12 [Lupenon-1,2-ene-2-ol]
- Zone of inhibition (mm) against S. aureus (Staphylococcus aureus [1]; [6]): 0.85 mm
- Active against (Staphylococcus aureus [1]): S. aureus,
- Zone of inhibition (mm) against S. epiderm. [2, 6]: 2.65 mm
- Active against ([2]; Table 1 summary, S. epidermidis): S. epidermidis,
- Zone of inhibition (mm) against E. faecalis (Enterococcus faecalis; [6]): 0.6 mm
- Active against (Enterococcus faecalis): E. faecalis
- Optical Density of S. epiderm (Staphylococcus epidermis): 0.006
- Optical Density of S. aureus (Staphylococcus aureus [3]): 0.04
- Optical Density of E. faecalis (Enterococcus faecilis): 0.01
- overall activity in Example 35 (bacteria; S. aureus, S. epidermidis, E. faecalis, disk diffusion and liquid growth): most active compound against almost all the bacteria
- active against at least one strain of bacteria in the assays above (bacteria): active against at least one strain of bacteria

Compound: O=C(N[C@H](CO)[C@H](O)c1ccc([N+](=O)[O-])cc1)C(Cl)Cl [Chloramphenicol, reference compound]
- Zone of inhibition (mm) against S. aureus (Staphylococcus aureus [1]; [5]): 2.6 mm
- Zone of inhibition (mm) against S. epiderm. [2, 5]: 0.5 mm
- Zone of inhibition (mm) against E. faecalis (Enterococcus faecalis; [5]): 1.25 mm

Compound: Gentamicin [reference compound]
- Zone of inhibition (mm) against S. aureus (Staphylococcus aureus [1]; [5]): 0.1 mm
- Zone of inhibition (mm) against S. epiderm. [2, 5]: 0 mm
- Zone of inhibition (mm) against E. faecalis (Enterococcus faecalis; [5]): 0 mm

Compound: C=C(C)C1CCC2(COC(=O)COCC(=O)O)CCC3(C)C(CCC4C5(C)CCC(O)C(C)(C)C5CCC43C)C12 (stereo not shown) [Betulin-28-diglycolate]
- sensitivity of E. coli (Escherichia coli): sensitive
- Active against (Escherichia coli): E. coli
- active against at least one strain of bacteria in the assays above (bacteria): active against at least one strain of bacteria

Compound: C=C(C)[C@@H]1CC[C@]2(COC(=O)CN)CC[C@]3(C)[C@H](CC[C@@H]4[C@@]5(C)CC[C@H](OC(=O)CN)C(C)(C)[C@@H]5CC[C@]43C)[C@@H]12 [Betulin 3,28-diglycine, Betulin-3,28-diglycine]
- Zone of inhibition Escherichia coli (Escherichia coli; [8]): 0 mm
- sensitivity of E. coli (Escherichia coli): sensitive
- Active against (Escherichia coli): E. coli
- Zone of inhibition Staphylococcus aureus (Staphylococcus aureus [1]; [8]): 0 mm
- Zone of inhibition Bacillus subtilis (Bacillus subtilis; [8]): 0 mm
- active against at least one strain of bacteria in the assays above (bacteria): active against at least one strain of bacteria

Compound: C=C(C)[C@@H]1CC[C@]2(COC(=O)[C@@H](N)C(C)C)CC[C@]3(C)[C@H](CC[C@@H]4[C@@]5(C)CC[C@H](OC(=O)[C@@H](N)C(C)C)C(C)(C)[C@@H]5CC[C@]43C)[C@@H]12 [Betulin-3,28-Di-L-valine ester, Betulin-3,28-di-L-valine]
- sensitivity of S. aureus (Staphylococcus aureus [1]; Example 34, 10 mg/ml in DMSO): sensitive
- Active against (Staphylococcus aureus [1]): S. aureus
- active against at least one strain of bacteria in the assays above (bacteria): active against at least one strain of bacteria

Compound: Allobetulin glycine
- Zone of inhibition Escherichia coli (Escherichia coli; [8]): 0 mm
- Zone of inhibition Staphylococcus aureus (Staphylococcus aureus [1]; [8]): 0 mm
- Zone of inhibition Bacillus subtilis (Bacillus subtilis; [8]): 0 mm

Compound: CC1(C)S[C@@H]2[C@H](NC(=O)[C@H](N)c3ccccc3)C(=O)N2[C@H]1C(=O)O [Ampicillin, reference compound]
- Zone of inhibition (mm) against S. aureus (Staphylococcus aureus [1]; [5]): 6.1 mm
- Zone of inhibition (mm) against S. epiderm. [2, 5]: 2 mm
- Zone of inhibition (mm) against E. faecalis (Enterococcus faecalis; [5]): 5.75 mm

Compound: Allobetulin 2-alanine ester
- Zone of inhibition Escherichia coli (Escherichia coli; [8]): 0 mm
- Zone of inhibition Staphylococcus aureus (Staphylococcus aureus [1]; [8]): 0 mm
- Zone of inhibition Bacillus subtilis (Bacillus subtilis; [8]): 0 mm

Compound: Betulin dianiline ester
- Zone of inhibition Escherichia coli (Escherichia coli; [8]): 0 mm
- Zone of inhibition Staphylococcus aureus (Staphylococcus aureus [1]; [8]): 0 mm
- Zone of inhibition Bacillus subtilis (Bacillus subtilis; [8]): 0 mm

Compound: C=C(C)[C@@H]1CC[C@]2(CO)CC[C@]3(C)[C@H](CC[C@@H]4[C@@]5(C)CC[C@H](O)C(C)(C)[C@@H]5CC[C@]43C)[C@@H]12 [Betulin]
- zone of inhibition at 1000 µg/mL (Escherichia coli; Escherichia coli, 1 mg/ml in DMSO, 100 μl on 10 mm disk, 18 hours 37° C.): 0 mm
- zone of inhibition at 1000 µg/mL (Staphylococcus aureus [1]; Staphylococcus aureus, 1 mg/ml in DMSO, 100 μl on 10 mm disk, 18 hours 37° C.): 0 mm
- zone of inhibition at 1000 µg/mL (Bacillus subtilis; Bacillus subtilis, 1 mg/ml in DMSO, 100 μl on 10 mm disk, 18 hours 37° C.): 0 mm

Compound: C[C@H]1[C@H](C)CC[C@]2(C(=O)O)CC[C@]3(C)C(=CC[C@@H]4[C@@]5(C)CC[C@H](O)C(C)(C)[C@@H]5CC[C@]43C)[C@H]12 [Ursolic Acid]
- zone of inhibition at 0.125 µg/mL (Escherichia coli; Escherichia coli, 125 ng/ml in water, 100 μl on 10 mm disk, 18 hours 37° C., read-out: Zone of inhibition Escherichia coli): 0 mm
- zone of inhibition at 0.125 µg/mL (Staphylococcus aureus [1]; Staphylococcus aureus, 125 ng/ml in water, 100 μl on 10 mm disk, 18 hours 37° C., read-out: Zone of inhibition Staphylococcus aureus): 0 mm
- zone of inhibition at 0.125 µg/mL (Bacillus subtilis; Bacillus subtilis, 125 ng/ml in water, 100 μl on 10 mm disk, 18 hours 37° C., read-out: Zone of inhibition Bacillus subtilis): 0 mm
